Calls of active or inactive are those of the source. The calls are words filed in the database; no cut-off is given here.
What was measured:
[1] = biological target: T1, Serine/threonine-protein kinase haspin (Homo sapiens) (UniProt Q8TF76); assay: Inhibition of human HASPIN at 2 uM by competition binding assay relative to control; conditions: values are per cent of control
T1 sequence (whole entry): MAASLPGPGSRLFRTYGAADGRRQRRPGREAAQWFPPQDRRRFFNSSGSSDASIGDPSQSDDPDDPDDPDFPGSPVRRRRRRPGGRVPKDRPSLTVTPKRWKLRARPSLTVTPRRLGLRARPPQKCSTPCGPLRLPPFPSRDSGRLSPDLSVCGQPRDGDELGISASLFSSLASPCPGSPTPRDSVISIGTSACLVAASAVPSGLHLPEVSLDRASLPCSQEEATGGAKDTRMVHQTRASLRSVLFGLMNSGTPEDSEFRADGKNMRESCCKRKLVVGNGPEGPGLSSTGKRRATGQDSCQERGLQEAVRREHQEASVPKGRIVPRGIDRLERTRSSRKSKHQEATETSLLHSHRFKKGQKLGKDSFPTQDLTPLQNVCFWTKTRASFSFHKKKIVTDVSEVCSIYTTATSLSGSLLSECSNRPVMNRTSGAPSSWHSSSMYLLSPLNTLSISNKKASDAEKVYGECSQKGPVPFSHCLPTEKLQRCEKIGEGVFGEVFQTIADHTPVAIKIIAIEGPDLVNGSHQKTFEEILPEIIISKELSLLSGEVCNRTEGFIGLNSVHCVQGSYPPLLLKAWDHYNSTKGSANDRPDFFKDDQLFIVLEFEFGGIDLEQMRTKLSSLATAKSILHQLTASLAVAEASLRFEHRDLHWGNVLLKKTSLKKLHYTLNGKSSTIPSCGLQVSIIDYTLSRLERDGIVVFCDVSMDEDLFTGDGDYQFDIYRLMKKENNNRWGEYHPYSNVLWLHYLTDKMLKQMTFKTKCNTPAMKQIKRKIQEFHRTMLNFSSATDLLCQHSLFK

[2] = biological target: T2, Myosin-IIIb (Homo sapiens) (UniProt Q8WXR4); assay: Inhibition of human MYO3B at 2 uM by competition binding assay relative to control; conditions: values are per cent of control
T2 sequence (whole entry): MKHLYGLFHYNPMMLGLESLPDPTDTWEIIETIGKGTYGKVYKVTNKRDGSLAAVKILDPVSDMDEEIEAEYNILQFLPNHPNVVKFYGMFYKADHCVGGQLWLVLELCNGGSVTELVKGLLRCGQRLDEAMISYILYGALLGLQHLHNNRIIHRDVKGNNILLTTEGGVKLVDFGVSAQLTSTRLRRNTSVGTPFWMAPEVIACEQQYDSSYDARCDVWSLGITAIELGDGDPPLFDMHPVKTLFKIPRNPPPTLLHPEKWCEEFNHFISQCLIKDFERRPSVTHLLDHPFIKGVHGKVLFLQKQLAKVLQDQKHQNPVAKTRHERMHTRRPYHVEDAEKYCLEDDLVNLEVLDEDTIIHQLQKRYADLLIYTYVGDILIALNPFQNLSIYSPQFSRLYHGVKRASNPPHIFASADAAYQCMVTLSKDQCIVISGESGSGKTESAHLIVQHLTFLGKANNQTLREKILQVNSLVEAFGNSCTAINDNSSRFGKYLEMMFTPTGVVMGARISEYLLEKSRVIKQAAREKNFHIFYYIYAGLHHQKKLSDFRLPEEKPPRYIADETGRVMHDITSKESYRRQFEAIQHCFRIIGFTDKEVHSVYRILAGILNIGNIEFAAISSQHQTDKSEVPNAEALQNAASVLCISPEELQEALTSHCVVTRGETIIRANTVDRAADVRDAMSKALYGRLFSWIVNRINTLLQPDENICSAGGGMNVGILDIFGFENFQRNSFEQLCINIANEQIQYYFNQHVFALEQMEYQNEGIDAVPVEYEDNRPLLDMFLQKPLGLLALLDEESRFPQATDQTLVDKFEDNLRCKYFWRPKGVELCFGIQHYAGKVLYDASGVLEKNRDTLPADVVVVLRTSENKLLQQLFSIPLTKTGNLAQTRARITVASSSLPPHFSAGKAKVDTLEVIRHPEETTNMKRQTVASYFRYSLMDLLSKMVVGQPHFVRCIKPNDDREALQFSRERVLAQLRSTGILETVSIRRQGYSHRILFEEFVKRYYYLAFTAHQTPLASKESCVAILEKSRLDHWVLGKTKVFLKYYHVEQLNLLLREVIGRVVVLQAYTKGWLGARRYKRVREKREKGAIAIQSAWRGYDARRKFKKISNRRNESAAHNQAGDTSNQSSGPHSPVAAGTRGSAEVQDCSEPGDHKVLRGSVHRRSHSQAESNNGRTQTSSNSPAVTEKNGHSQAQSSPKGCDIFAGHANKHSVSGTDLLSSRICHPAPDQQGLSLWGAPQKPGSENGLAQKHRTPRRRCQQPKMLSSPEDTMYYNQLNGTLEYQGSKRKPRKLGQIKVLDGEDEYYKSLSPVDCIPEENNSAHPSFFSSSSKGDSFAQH

[3] = biological target: T3, CDK8/Cyclin C (Homo sapiens) (UniProt P49336+P24863); assay: Binding affinity to kinase tracer 236 binding to His tagged recombinant human CDK8/cyclinC assessed as rate constant (kon) by TR FRET based assay; format: protein-complex assay
[4] = biological target: T3, CDK8/Cyclin C (Homo sapiens); assay: Binding affinity to kinase tracer 236 binding to His tagged recombinant human CDK8/cyclinC assessed as half life by TR FRET based assay; format: protein-complex assay
HEK293 = assay: Inhibition of TNFalpha induced CDK8/19 dependent NF kappa B activity in Wild type HEK293 cell for 3 hrs by qt-PCR analysis; format: functional, cell-based; conditions: Homo sapiens
[5] = Elimination rate constant in plasma of BALB/c mouse xenografted with mouse CT26 cells at 100 mg/kg, po by LC-MS/MS analysis; format: ADME, organism-based
[6] = Cmax in plasma of BALB/c mouse xenografted with mouse CT26 cells at 100 mg/kg, po by LC-MS/MS analysis; format: ADME, organism-based; parameters: route oral, dose 100 mg/kg
[7] = Oral bioavailability in plasma of BALB/c mouse xenografted with mouse CT26 cells at 100 mg/kg by LC-MS/MS; format: ADME, organism-based
CT26 = assay: Downregulation of KLF2 gene expression in BALB/c mouse xenografted with mouse CT26 cells at 100 mg/kg, po 2 to 12 hrs […]; format: functional, organism-based; conditions: time 2-12 hrs, TDE = time-dependent effect
[8] = Toxicity in BALB/c mouse bearing CT26 tumor model assessed as change in body weight at 100 mg/kg, po qd for 7 days by LC-MS/MS analysis; format: organism-based; conditions: in vivo, 168 h, time 7 day
[9] = Drug accumulation in liver of BALB/c mouse bearing CT26 tumor model at 100 mg/kg, po for 7 days by LC-MS/MS analysis; format: ADME, organism-based; conditions: in vivo, 168 h, time 7 day
MV4-11 = assay: Antitumor activity against human luciferase expressing MV4-11 AML cells xenografted in NOD SCID NSG mouse assessed as supression of tumor growth at 40 mg/kg, po bid for 4 weeks by bioluminescence imaging method; format: functional, organism-based
[10] = Half life in plasma of BALB/c mouse xenografted with mouse CT26 cells at 2.5 mg/kg, iv by LC-MS/MS analysis; format: ADME, organism-based

residual binding, % of control [1]: 29%
residual binding, % of control [2]: 31%
K [3]: 8.78 10^6/M/s
T1/2 [4]: 9.45 min
k el [5]: 5.56e-05 s⁻¹
Cmax [6]: 144 ng/mL
bioavailability [7]: 16.5%
Drug uptake [9]: Active
half-life [10]: 45 min
Structure (SMILES): CN1CCN(C(=O)c2ccc3cc(CCNc4ccnc5ccc(C#N)cc45)ccc3c2)CC1
Activity (HEK293): Active
Activity (CT26): Tde
Activity [8]: Non-Toxic
Activity (MV4-11): Active

From ChEMBL document CHEMBL5046270, “A Selective and Orally Bioavailable Quinoline-6-Carbonitrile-Based Inhibitor of CDK8/19 Mediator Kinase with Tumor-Enriched Pharmacokinetics” (J Med Chem, 2022)
